Measured values published in patent US7799821B2, “Therapeutic compounds” (Allergan, Inc., priority 2004, dated 2010).

target: T1, hDP/Gqs5 (Homo sapiens, UniProt Q13258); assay: FLIPR calcium signal, hDP; assay type: cell-based; settings: FLIPR Ca2+ signal, HEK-293(EBNA); read-out: FUNCTIONAL EC50 HDP
T1 construct: expressed in transfected cells; host or cells: HEK-293(EBNA)
T1 sequence (Q13258 1-359): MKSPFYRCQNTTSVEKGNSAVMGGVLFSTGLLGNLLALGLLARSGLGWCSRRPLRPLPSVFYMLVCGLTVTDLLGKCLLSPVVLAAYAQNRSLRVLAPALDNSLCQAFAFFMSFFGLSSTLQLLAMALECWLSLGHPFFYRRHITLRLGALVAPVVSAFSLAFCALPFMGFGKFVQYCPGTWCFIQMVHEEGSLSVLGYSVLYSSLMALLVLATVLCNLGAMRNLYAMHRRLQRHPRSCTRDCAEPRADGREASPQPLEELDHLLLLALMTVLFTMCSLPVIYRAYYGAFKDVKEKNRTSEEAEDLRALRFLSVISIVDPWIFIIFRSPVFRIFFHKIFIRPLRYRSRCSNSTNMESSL
Procedure: (§1) HEK-293(EBNA) cells, stably expressing one type or subtype of recombinant human prostaglandin receptors (prostaglandin receptors expressed: hDP/Gqs5; hEP1; hEP2/Gqs5; hEP3A/Gqi5; hEP4/Gqs5; hFP; hIP; hTP), were cultured in 100 mm culture dishes in high-glucose DMEM medium containing 10% fetal bovine serum, 2 mM 1-glutamine, 250 μg/ml geneticin (G418) and 200 μg/ml hygromycin B as selection markers, and 100 units/ml penicillin G, 100 μg/ml streptomycin and 0.25 μg/ml amphotericin B. • (b) Calcium Signal Studies on the FLIPR™
(§2) Cells were seeded at a density of 5×10^4 cells per well in Biocoat® Poly-D-lysine-coated black-wall, clear-bottom 96-well plates (Becton-Dickinson) and allowed to attach overnight in an incubator at 37° C. Cells were then washed two times with HBSS-HEPES buffer (Hanks Balanced Salt Solution without bicarbonate and phenol red, 20 mM HEPES, pH 7.4) using a Denley Cellwash plate washer (Labsystems). After 45 minutes of dye-loading in the dark, using the calcium-sensitive dye Fluo-4 AM at a final concentration of 2 μM, plates were washed four times with HBSS-HEPES buffer to remove excess dye leaving 100 μl in each well. Plates were re-equilibrated to 37° C. for a few minutes.
(§3) Cells were excited with an Argon laser at 488 nm, and emission was measured through a 510-570 nm bandwidth emission filter (FLIPR™, Molecular Devices, Sunnyvale, Calif.). Drug solution was added in a 50 μl volume to each well to give the desired final concentration. The peak increase in fluorescence intensity was recorded for each well. On each plate, four wells each served as negative (HBSS-HEPES buffer) and positive controls (standard agonists: BW245C (hDP); PGE2 (hEP1; hEP2/Gqs5; hEP3A/Gqi5; hEP4/Gqs5); PGF2α (hFP); carbacyclin (hIP); U-46619 (hTP), depending on receptor). The peak fluorescence change in each drug-containing well was then expressed relative to the controls.
(§4) Compounds were tested in a high-throughput (HTS) or concentration-response (CoRe) format. In the HTS format, forty-four compounds per plate were examined in duplicates at a concentration of 10^−5 M. To generate concentration-response curves, four compounds per plate were tested in duplicates in a concentration range between 10^−5 and 10^−11 M. The duplicate values were averaged. In either, HTS or CoRe format each compound was tested on at least 3 separate plates using cells from different passages to give an n≧3.

Row | EC50 [µM] | SMILES
1 | > 10 | CC(C)(C)c1ccc([C@@H]2[C@@H](CCCCCCC(=O)O)[C@H](Cl)C[C@H]2O)cc1 [drawing 70]
2 | > 10 | CCCC1(C(O)c2cccc([C@H]3[C@H](O)CC(=O)[C@@H]3CCCCCCC(=O)OC)c2)CCC1 (some centres unmarked)
3 | > 10 | CC(C)(C)c1ccc([C@@H]2[C@@H](C/C=C\CCCC(=O)O)[C@H](Cl)C[C@H]2O)cc1
4 | > 10 | CCCC1(C(O)c2cccc([C@@H]3[C@@H](C/C=C\CCCC(=O)O)[C@H](Cl)C[C@H]3O)c2)CCC1 (some centres unmarked)

target: T2, hEP2/Gqs5 (Homo sapiens, UniProt P43116); assay: FLIPR calcium signal, hEP2; assay type: cell-based; settings: FLIPR Ca2+ signal, HEK-293(EBNA); read-out: FUNCTIONAL EC50 HEP2
T2 construct: expressed in transfected cells; host or cells: HEK-293(EBNA)
Procedure, shortened: (§5)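 HEK-293(EBNA) cells stably expressing each human prostanoid receptor (EP2 and EP3A coupled via Gqs5/Gqi5 chimeras) were loaded with Fluo-4 AM, and peak calcium fluorescence was measured on FLIPR at 37° C. Compounds were tested at 10^−5 M or from 10^−11 to 10^−5 M in duplicate, n≥3, with response expressed relative to buffer and standard agonist controls.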

T2 sequence (P43116 whole entry): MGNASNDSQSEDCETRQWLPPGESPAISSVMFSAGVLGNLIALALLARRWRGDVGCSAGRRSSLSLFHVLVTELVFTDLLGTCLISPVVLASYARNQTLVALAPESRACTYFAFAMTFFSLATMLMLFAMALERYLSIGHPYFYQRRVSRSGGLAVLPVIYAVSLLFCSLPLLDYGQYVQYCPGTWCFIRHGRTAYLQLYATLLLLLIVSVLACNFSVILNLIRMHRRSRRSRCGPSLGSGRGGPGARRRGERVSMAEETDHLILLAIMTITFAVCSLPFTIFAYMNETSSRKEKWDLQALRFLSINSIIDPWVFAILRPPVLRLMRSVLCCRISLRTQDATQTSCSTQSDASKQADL

Row | EC50 [µM] | SMILES
5 | 0.529 | O=C(O)CCCCCC[C@@H]1[C@@H](c2ccc3c(c2)CCC3O)[C@H](O)C[C@H]1Cl (some centres unmarked)
6 | 0.264 | CC(C)(C)c1ccc([C@@H]2[C@@H](CCCCCCC(=O)O)[C@H](Cl)C[C@H]2O)cc1 [drawing 70]
7 | > 10 | CCCC1(C(O)c2cccc([C@@H]3[C@@H](C/C=C\CCCC(=O)OC)[C@H](Cl)C[C@H]3O)c2)CCC1 (some centres unmarked)
8 | > 10 | CCCC1(C(O)c2cccc([C@H]3[C@H](O)CC(=O)[C@@H]3CCCCCCC(=O)OC)c2)CCC1 (some centres unmarked)
9 | > 10 | COC(=O)CCCCCC[C@H]1C(=O)C[C@@H](O)[C@@H]1c1ccc2c(c1)CCC2
10 | 1.71 | CC(C)(C)c1ccc([C@H]2[C@H](O)CC(=O)[C@@H]2C/C=C\CCCC(=O)O)cc1
11 | 0.118 | CC(C)(C)c1ccc([C@@H]2[C@@H](C/C=C\CCCC(=O)O)[C@H](Cl)C[C@H]2O)cc1
12 | 0.322 | CCCC1(C(O)c2cccc([C@@H]3[C@@H](C/C=C\CCCC(=O)O)[C@H](Cl)C[C@H]3O)c2)CCC1 (some centres unmarked)

target: T3, hIP (Homo sapiens, UniProt P43119); assay: FLIPR calcium signal, hIP; assay type: cell-based; settings: FLIPR Ca2+ signal, HEK-293(EBNA); read-out: FUNCTIONAL EC50 HIP
T3 construct: expressed in transfected cells; host or cells: HEK-293(EBNA)
Procedure: as §1, §2, §3, §4

T3 sequence (P43119 whole entry): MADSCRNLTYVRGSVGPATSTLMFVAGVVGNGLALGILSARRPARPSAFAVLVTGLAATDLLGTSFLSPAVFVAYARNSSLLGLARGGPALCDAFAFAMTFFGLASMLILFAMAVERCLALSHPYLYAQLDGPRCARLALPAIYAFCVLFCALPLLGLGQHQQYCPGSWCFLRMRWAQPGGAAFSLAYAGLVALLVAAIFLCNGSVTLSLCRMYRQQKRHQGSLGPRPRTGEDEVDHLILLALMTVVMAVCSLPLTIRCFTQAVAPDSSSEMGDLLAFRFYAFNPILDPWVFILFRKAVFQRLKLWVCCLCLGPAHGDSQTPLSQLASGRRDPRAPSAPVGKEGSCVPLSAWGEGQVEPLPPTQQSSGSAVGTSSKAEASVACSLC

Row | EC50 [µM] | SMILES
13 | > 10 | CCCC1(C(O)c2cccc([C@H]3[C@H](O)CC(=O)[C@@H]3CCCCCCC(=O)OC)c2)CCC1 (some centres unmarked)

target: T4, hTP (Homo sapiens, UniProt P21731); assay: FLIPR calcium signal, hTP; assay type: cell-based; settings: FLIPR Ca2+ signal, HEK-293(EBNA); read-out: FUNCTIONAL EC50 HTP
T4 construct: expressed in transfected cells; host or cells: HEK-293(EBNA)
T4 sequence (P21731 1-343): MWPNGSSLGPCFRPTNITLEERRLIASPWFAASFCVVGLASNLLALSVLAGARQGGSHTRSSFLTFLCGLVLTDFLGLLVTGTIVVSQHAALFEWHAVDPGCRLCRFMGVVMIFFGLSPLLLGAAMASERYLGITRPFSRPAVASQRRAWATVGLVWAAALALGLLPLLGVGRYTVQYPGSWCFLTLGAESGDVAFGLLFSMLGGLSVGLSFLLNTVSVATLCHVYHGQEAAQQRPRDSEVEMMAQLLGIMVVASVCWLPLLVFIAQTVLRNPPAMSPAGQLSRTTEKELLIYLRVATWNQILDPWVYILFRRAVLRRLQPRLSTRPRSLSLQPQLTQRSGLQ
Procedure: as §1, §2, §3, §4

Row | EC50 [µM] | SMILES
14 | 2.99 | O=C(O)CCCCCC[C@@H]1[C@@H](c2ccc3c(c2)CCC3O)[C@H](O)C[C@H]1Cl (some centres unmarked)
15 | > 10 | CC(C)(C)c1ccc([C@@H]2[C@@H](CCCCCCC(=O)O)[C@H](Cl)C[C@H]2O)cc1 [drawing 70]
16 | > 10 | CCCC1(C(O)c2cccc([C@@H]3[C@@H](C/C=C\CCCC(=O)OC)[C@H](Cl)C[C@H]3O)c2)CCC1 (some centres unmarked)
17 | > 10 | COC(=O)CCCCCC[C@H]1C(=O)C[C@@H](O)[C@@H]1c1ccc2c(c1)CCC2
18 | 1.27 | CC(C)(C)c1ccc([C@@H]2[C@@H](C/C=C\CCCC(=O)O)[C@H](Cl)C[C@H]2O)cc1
19 | > 10 | CCCC1(C(O)c2cccc([C@@H]3[C@@H](C/C=C\CCCC(=O)O)[C@H](Cl)C[C@H]3O)c2)CCC1 (some centres unmarked)

target: T5, hEP3A/Gqi5 (Homo sapiens, UniProt P43115); assay: FLIPR calcium signal, hEP3A; assay type: cell-based; settings: FLIPR Ca2+ signal, HEK-293(EBNA); read-out: FUNCTIONAL EC50 HEP3A
T5 construct: expressed in transfected cells; host or cells: HEK-293(EBNA)
T5 sequence (P43115 1-390): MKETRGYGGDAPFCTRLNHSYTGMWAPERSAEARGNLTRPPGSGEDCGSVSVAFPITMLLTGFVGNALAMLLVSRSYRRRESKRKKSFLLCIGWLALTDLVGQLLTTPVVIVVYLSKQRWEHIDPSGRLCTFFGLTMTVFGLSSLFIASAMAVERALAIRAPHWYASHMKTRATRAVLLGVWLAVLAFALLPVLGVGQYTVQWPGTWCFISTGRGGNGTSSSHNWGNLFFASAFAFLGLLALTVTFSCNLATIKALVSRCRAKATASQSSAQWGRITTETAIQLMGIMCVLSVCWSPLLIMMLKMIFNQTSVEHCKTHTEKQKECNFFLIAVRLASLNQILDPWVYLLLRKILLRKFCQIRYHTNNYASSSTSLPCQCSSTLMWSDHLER
Procedure: as §1, §2, §3, §4

Row | EC50 [µM] | SMILES
20 | > 10 | CC(C)(C)c1ccc([C@@H]2[C@@H](CCCCCCC(=O)O)[C@H](Cl)C[C@H]2O)cc1 [drawing 70]
21 | > 10 | CCCC1(C(O)c2cccc([C@@H]3[C@@H](C/C=C\CCCC(=O)OC)[C@H](Cl)C[C@H]3O)c2)CCC1 (some centres unmarked)
22 | > 10 | CCCC1(C(O)c2cccc([C@H]3[C@H](O)CC(=O)[C@@H]3CCCCCCC(=O)OC)c2)CCC1 (some centres unmarked)
23 | > 10 | COC(=O)CCCCCC[C@H]1C(=O)C[C@@H](O)[C@@H]1c1ccc2c(c1)CCC2
24 | 2.05 | CC(C)(C)c1ccc([C@@H]2[C@@H](C/C=C\CCCC(=O)O)[C@H](Cl)C[C@H]2O)cc1
25 | 0.455 | CCCC1(C(O)c2cccc([C@@H]3[C@@H](C/C=C\CCCC(=O)O)[C@H](Cl)C[C@H]3O)c2)CCC1 (some centres unmarked)

target: T6, human EP2 receptors (Homo sapiens, UniProt P43116); assay: Competition radioligand binding ([3H]PGE2), EP2; settings: read-out: BINDING IC50 HEP2
T6 construct: expressed in transfected cells; host or cells: HEK 293
T6 sequence (P43116 whole entry): as the sequence (P43116 whole entry) above

Row | IC50 [µM] | SMILES
26 | 13.1 | O=C(O)CCCCCC[C@@H]1[C@@H](c2ccc3c(c2)CCC3O)[C@H](O)C[C@H]1Cl (some centres unmarked)

target: T7, hEP4/Gqs5 (Homo sapiens, UniProt P35408); assay: FLIPR calcium signal, hEP4; assay type: cell-based; settings: FLIPR Ca2+ signal, HEK-293(EBNA); read-out: FUNCTIONAL EC50 HEP4
T7 construct: expressed in transfected cells; host or cells: HEK-293(EBNA)
Procedure, shortened: as §5

T7 sequence (P35408 whole entry): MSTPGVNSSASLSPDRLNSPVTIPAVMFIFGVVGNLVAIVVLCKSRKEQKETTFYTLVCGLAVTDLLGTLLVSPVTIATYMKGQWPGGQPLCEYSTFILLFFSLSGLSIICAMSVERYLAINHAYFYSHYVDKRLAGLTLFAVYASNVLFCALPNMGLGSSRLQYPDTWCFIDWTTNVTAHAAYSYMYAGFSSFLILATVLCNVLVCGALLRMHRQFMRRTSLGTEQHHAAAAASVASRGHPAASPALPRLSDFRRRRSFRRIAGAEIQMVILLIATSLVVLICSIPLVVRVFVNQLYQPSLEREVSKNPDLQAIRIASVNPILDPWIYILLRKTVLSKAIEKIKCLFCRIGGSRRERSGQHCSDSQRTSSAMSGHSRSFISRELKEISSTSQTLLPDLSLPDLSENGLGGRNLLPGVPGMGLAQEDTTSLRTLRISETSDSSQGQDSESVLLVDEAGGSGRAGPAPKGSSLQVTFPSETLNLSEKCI

Row | EC50 [µM] | SMILES
27 | > 10 | CCCC1(C(O)c2cccc([C@H]3[C@H](O)CC(=O)[C@@H]3CCCCCCC(=O)OC)c2)CCC1 (some centres unmarked)
28 | > 10 | COC(=O)CCCCCC[C@H]1C(=O)C[C@@H](O)[C@@H]1c1ccc2c(c1)CCC2
29 | > 10 | CC(C)(C)c1ccc([C@@H]2[C@@H](C/C=C\CCCC(=O)O)[C@H](Cl)C[C@H]2O)cc1

target: T8, hEP1 (Homo sapiens, UniProt P34995); assay: FLIPR calcium signal, hEP1; assay type: cell-based; settings: FLIPR Ca2+ signal, HEK-293(EBNA); read-out: FUNCTIONAL EC50 HEP1
T8 construct: expressed in transfected cells; host or cells: HEK-293(EBNA)
T8 sequence (P34995 1-402): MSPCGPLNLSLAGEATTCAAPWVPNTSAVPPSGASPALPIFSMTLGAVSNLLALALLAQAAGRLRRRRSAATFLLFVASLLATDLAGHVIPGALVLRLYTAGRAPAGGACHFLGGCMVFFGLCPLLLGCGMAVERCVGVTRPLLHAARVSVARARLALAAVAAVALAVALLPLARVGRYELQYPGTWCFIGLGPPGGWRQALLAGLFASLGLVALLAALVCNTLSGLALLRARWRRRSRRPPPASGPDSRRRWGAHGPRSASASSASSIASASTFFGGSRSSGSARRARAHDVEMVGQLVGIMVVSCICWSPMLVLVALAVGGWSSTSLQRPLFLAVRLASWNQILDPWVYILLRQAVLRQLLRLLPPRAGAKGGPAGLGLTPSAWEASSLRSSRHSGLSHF
Procedure: as §1, §2, §3, §4

Row | EC50 [µM] | SMILES
30 | > 10 | CC(C)(C)c1ccc([C@@H]2[C@@H](CCCCCCC(=O)O)[C@H](Cl)C[C@H]2O)cc1 [drawing 70]
31 | > 10 | CC(C)(C)c1ccc([C@H]2[C@H](O)CC(=O)[C@@H]2C/C=C\CCCC(=O)O)cc1
32 | > 10 | CC(C)(C)c1ccc([C@@H]2[C@@H](C/C=C\CCCC(=O)O)[C@H](Cl)C[C@H]2O)cc1
